Measured values from patent US20100256145A1, “USE OF KCNQ POTASSIUM CHANNEL OPENERS FOR REDUCING SYMPTOMS OF OR TREATING DISORDERS OR CONDITIONS WHEREIN THE DOPAMINERGIC SYSTEM IS DISRUPTED” (H. LUNDBECK A/S, priority 2007, published 2010).
Marks after values point to notes of the source that are not given here.

Legend:
[1] = tested on: choice of the large-but-delayed reward (impulsivity); assay: Rat T-maze procedure: large-but-delayed vs small-but-immediate reward; assay type: in vivo; conditions: juvenile Wistar rats; for % Choice of the large but delayed reward on Control sessions: placebo administered before control (pre-drug and post-drug) sessions of the same group
Protocol: Subjects. male Wistar AF rats (28-41 days old) (Centre d′Elevage René Janvier, France) were used. […] During the whole study, tap water was provided ad libitum. Food was restricted to 5-10 g/day/animal in order to maintain animals at 65-75% of their free feeding weight
Experimental procedure. The experiments were performed in two identical T-maze apparatus constructed from opaque grey plastic tubing and consisting of a starting runway (30 cm long) and two arms (35 cm long) each leading to a rectangular black plastic goal box (18 cm large, 30 cm wide, 10 cm high). Removable grey plastic guillotine doors could be inserted into the vertical clefts, situated at the entry of the starting runway and at each end of the arms. One of the goal-boxes (left or right, depending on the rats) was constantly provided with a large reward, the other with a small reward. Large and small rewards consisted, respectively, of 5 and 1 pellets (20 mg, Technical & Scientific Equipment GmbH, Germany). The pellets were placed in a translucent food-cup before each trial.
First phase: habituation. Animals were first subjected to two 5-min sessions of habituation. The rat was gently introduced in the starting runway, which then was closed with a guillotine door inserted in the cleft (referred to as c0 in FIG. 1). The animal was allowed to freely explore the apparatus and to eat food rewards placed in the food cups.
Second phase: pretraining. After a door was placed in the cleft c2 near each goal-box, the rat was introduced in the starting runway. When it entered one of the two arms, a door was inserted behind it in the cleft c1 near the choice area and the door placed in cleft c2 was removed. As soon as the animal entered the goal-box, the door was placed again in the cleft c2. The rat was removed from the goal-box as soon as the pellets were eaten (usually within less than 1 min). The animal was then returned to its home cage for an intertrial interval of 2 to 3 min. Each rat was submitted one to five times/day to five trials sessions in this procedure. Training was initiated when the rat selected the arm giving access to the large reward in more than 14 out of 15 trials.
Third phase: training. Rats underwent one to five times/day five trials training sessions during which a delay was introduced before access to the large reward. After a door was placed in the cleft c2 near each goal-box, the rat was introduced in the starting runway. When it entered one of the two arms, a second door was inserted behind it in the cleft c1 near the choice area, so that rat selecting the arm leading to the large reward could be detained in this arm for a period (referred to as the waiting delay) before having access to the reinforcement. Otherwise, if the animal selected the arm leading to the small reward, the door placed in the cleft c2 was immediately opened, allowing the animal to enter the goal-box. At the beginning of training, the waiting delay was 30 sec. Then, if the percentage of choices of the large and delayed reward remained high (i.e. ≧40%) for more than six sessions, it was increased to 45 sec, and if necessary to 60 sec, 90 sec and finally 120 sec. Drug testing began when the animal selected the large and delayed reward in two trials out of five (or less) in two consecutive sessions and in one trial out of five (or less) in the following session.
Drug testing was conducted over six consecutive test-sessions of five trials each, during which the access to the large reward was preceded by the waiting delay. Test sessions were: Two control pre-drug sessions: control pre-drug session 1 and control pre-drug session 2; Two drug sessions: drug session 1 and drug session 2; Two control post-drug sessions: control post-drug session 1 and control post-drug session 2.

[2] = tested on: social behaviours in the rat Tetradic Encounter test; assay: Rat Tetradic Encounter test; conditions: for % of time Agonistic behaviour: sum of defensive and aggressive behaviour
[3] = tested on: social behaviours in the Mutual Resident Intruder rat test; assay: Mutual Resident Intruder rat test; conditions: for % of time Agonistic behaviour: sum of defensive and aggressive behaviour
[4] = 1 mg/kg s.c. 30 min before test
[5] = 5 mg/kg s.c. 30 min before test

SMILES | % Choice of the large but delayed reward on Control sessions [1] | % of time Aggressive behaviour [2, 4] | % of time Defensive behaviour [2, 4] | % of time Friendly behaviour [2, 4] | % of time Non-social behaviour [2, 4] | % of time Agonistic behaviour [2, 4] | % of time Aggressive behaviour [2, 5] | % of time Defensive behaviour [2, 5] | % of time Friendly behaviour [2, 5] | % of time Non-social behaviour [2, 5] | % of time Agonistic behaviour [2, 5] | % of time Aggressive behaviour [3, 4] | % of time Defensive behaviour [3, 4] | % of time Friendly behaviour [3, 4] | % of time Non-social behaviour [3, 4] | % of time Agonistic behaviour [3, 4] | % of time Aggressive behaviour [3, 5] | % of time Defensive behaviour [3, 5] | % of time Friendly behaviour [3, 5] | % of time Non-social behaviour [3, 5] | also measured
COc1cc(N2CCOCC2)cc(C)c1NC(=O)CC1CCCC1 [Compound 2] | 11.7 ± 2.5% | 5.3 % of time | 7.2 % of time | 18.2* % of time | 69.3 % of time | 12.5 % of time | 0.4** % of time | 0.8*** % of time | 26.2 % of time | 72.7** % of time | 1.2*** % of time | 15.5 % of time | 17.3 % of time | 4.0 % of time | 63.1 % of time | 32.8*** % of time | 0.7*** % of time | 0.2*** % of time | 2.4 % of time | 96.6*** % of time | % Choice of the large but delayed reward on Drug sessions ([1]; 1 mg/kg s.c. 30 min before the test): 33.3 ± 3.3 %; % of time Agonistic behaviour [3, 5]: 0.9*** % of time
CNCC[C@@H](Oc1ccccc1C)c1ccccc1 [Atomoxetine, reference compound] | 10.7 ± 2.3% |  |  |  |  |  |  |  |  |  |  |  |  |  |  |  |  |  |  |  | % Choice of the large but delayed reward on Drug sessions ([1]; 1 mg/kg i.p. 30 min before the test): 40.0 ± 2.2 %
Cc1cc(N2CCOCC2)nc(C)c1NC(=O)CC(C)(C)C [Compound 3, N-(2,4-dimethyl-6-morpholin-4-yl-pyridin-3-yl)-3,3-dimethylbutyramide] | 8.3 ± 2.8% | 5.9 % of time | 8.5 % of time | 20.2 % of time | 65.4 % of time | 14.4 % of time | 0.1** % of time | 0.0*** % of time | 20.0 % of time | 79.9*** % of time | 0.1*** % of time | 12.0 % of time | 12.3 % of time | 3.4 % of time | 72.3 % of time | 24.3 % of time | 0.2*** % of time | 0.2*** % of time | 2.3 % of time | 97.4*** % of time | % Choice of the large but delayed reward on Drug sessions ([1]; 2.5 mg/kg s.c. 30 min before the test): 25.0 ± 6.7 %; % of time Agonistic behaviour [3, 5]: 0.3*** % of time
C[C@H](N)Cc1ccccc1 [Amphetamine, D-amphetamine, reference compound] |  |  |  |  |  |  |  |  |  |  |  |  |  |  |  |  |  |  |  |  | % of time Aggressive behaviour ([2]; 0.5 mg/kg (positive control)): 0.1*** % of time; % of time Defensive behaviour ([2]; 0.5 mg/kg (positive control)): 1.2*** % of time; % of time Friendly behaviour ([2]; 0.5 mg/kg (positive control)): 17.3* % of time; % of time Non-social behaviour ([2]; 0.5 mg/kg (positive control)): 81.4*** % of time; % of time Agonistic behaviour ([2]; 0.5 mg/kg (positive control)): 1.4*** % of time; % of time Aggressive behaviour ([3]; 0.5 mg/kg (positive control)): 3.9*** % of time; % of time Defensive behaviour ([3]; 0.5 mg/kg (positive control)): 4.0*** % of time; % of time Friendly behaviour ([3]; 0.5 mg/kg (positive control)): 5.3 % of time; % of time Non-social behaviour ([3]; 0.5 mg/kg (positive control)): 86.8*** % of time; % of time Agonistic behaviour ([3]; 0.5 mg/kg (positive control)): 7.9*** % of time
